According to article PMC4105567, “Aurora Kinases as Druggable Targets in Pediatric Leukemia: Heterogeneity in Target Modulation Activities and Cytotoxicity by Diverse Novel Therapeutic Agents” (PLoS ONE, 2014):

How the values were obtained:
NB4 APML cell line = experiment: Cytotoxicity assay, NB4; format: cell-based, human; conditions: four days in culture, Alamar blue assay or automated microscopy, ± SD, three experiments
Procedure, shortened: (§1)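 Cells (1×10^4/well) exposed to inhibitor, 1×10^−6 to 10 µM final, in triplicate for 4 days in Opti-MEM with 10% FBS at 37°C. Survival read by Alamar blue absorbance (570–620 nm) or bright-field direct cell counting, expressed as percent of vehicle (DMSO) control.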

HL-60 RA APML cell line = experiment: Cytotoxicity assay, HL-60 RA; format: cell-based, human; conditions: APML cell line HL-60 RA, four days in culture, Alamar blue assay or automated microscopy, ± SD, three experiments
Procedure, shortened: as §1

B1 B-ALL cell line = experiment: Cytotoxicity assay, B1; format: cell-based, human; conditions: four days in culture, Alamar blue assay or automated microscopy, ± SD, three experiments
Procedure, shortened: (§2)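 Leukemia cells were exposed for 4 days to Aurora kinase inhibitors across final concentrations of 1×10^−6 to 10 µM. Survival, expressed as a percentage of vehicle-treated wells, came from Alamar blue absorbance or from imaging-based counts of viable cells.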

MV4-11 AML cell line = experiment: Cytotoxicity assay, MV4-11; format: cell-based, human; conditions: AML cell line MV4-11, four days in culture, Alamar blue assay or automated microscopy, ± SD, three experiments
Procedure, shortened: as §2

TIB-202 AML cell line = experiment: Cytotoxicity assay, TIB-202; format: cell-based, human; conditions: AML cell line TIB-202, four days in culture, Alamar blue assay or automated microscopy, ± SD, three experiments
Procedure, shortened: as §1

[1] = system: Patient #4 infant leukemia primary cells; experiment: Cytotoxicity assay, primary sample Patient #4; format: cell-based, human; conditions: four days in culture, Alamar blue assay or automated microscopy, one complete study
Procedure, shortened: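 Ficoll-isolated primary leukemic white cells (1×10^4 per well) in Opti-MEM exposed in triplicate to Aurora kinase inhibitors at 1×10^−6 to 10 µM or DMSO for 4 days. Survival measured by Alamar blue absorbance (570–620 nm) or bright-field direct cell counting, as percent of vehicle control.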

CEM T-ALL cell line = experiment: Cytotoxicity assay, CEM; format: cell-based, human; conditions: four days in culture, Alamar blue assay or automated microscopy, ± SD, three experiments
Protocol: Cell lines were cultured in Opti-MEM medium (Gibco, Life Technologies Corporation, Burlington, Ontario) supplemented with 10% heat inactivated fetal bovine serum (FBS) (Gibco), 100 units/ml penicillin and 100 units/ml streptomycin (Gibco) and 0.05 mM 2-mercaptoethanol (Sigma-Aldrich, Oakville, Ontario) in T25 flasks (Nalge Nunc, Rochester, New York) or T75 flasks (Corning Incorporated, Corning, New York). All cell cultures were maintained at 37°C in a humidified incubator with 5% CO2.
For cytotoxicity profiling of Aurora kinase inhibitors against leukemia cell lines, inhibitors or vehicle control (DMSO, Sigma-Aldrich) were diluted in 100 µl of Opti-MEM per well in 96 well plates (Grenier Bio-One, Monroe, North Carolina) in triplicate at final concentrations ranging from 1×10^−6 to 10 µM. 1×10^4 cells per well were seeded and plates were incubated for 4 days. Following incubation for 4 days, cell survival was quantified by Alamar blue assay (Invitrogen) or automated inverted microscopy using the Celigo Cell Cytometer (Cyntellect, San Diego, California). […] During this period of incubation, the absorbance at 570–620 nm was measured (Opsys MR Plate Reader, Dynex Technologies, Chantilly, Virginia) at various time points, depending on the cell line or sample. Percent survival was calculated by comparing the absorbance ratio of the test well to the control well multiplied by 100%, as indicated in the following formula: […]
For automated inverted microscopy, the number of cells in each well was determined using the direct cell counting application as described previously. Briefly, following adjustment of image acquisition settings for bright-field imaging, the wells containing cells and appropriate dilutions of inhibitors were individually scanned. Based on these images, analysis parameters, including intensity threshold and cell diameter, were modified for optimal inclusion of viable cells in treated and control wells. These parameters were applied for subsequent replicates involving the same leukemia cell line or sample. The percent survival was then calculated as a ratio of the number of cells in treated wells to the number of cells in control wells multiplied by 100%. Given that Aurora kinase inhibitors interfere with cytokinesis, cells that are committed to death may still contain enlarging but intact cytoplasmic content before the eventual loss of cytoplasmic membrane integrity. The accuracy of Alamar blue assay may be, in theory, affected by the timing of these events.

Aurora-B = system: Aurora-B; design: method as in earlier work; conditions: literature values; ref [10],[22],[27],[40],[44]–[64] as listed per inhibitor in Table 1; read-out: Targets (IC50 Value): Aurora-B; cited from earlier work
UOCB1 B-ALL cell line = experiment: Cytotoxicity assay, UOCB1; format: cell-based, human; conditions: four days in culture, Alamar blue assay or automated microscopy, ± SD, three experiments
Procedure, shortened: as §1

Normal Lymphocytes = experiment: Cytotoxicity assay, normal lymphocytes; format: cell-based, human; conditions: normal lymphocytes (control for non-leukemia cytotoxicity), four days in culture, ± SD, three experiments
C1 B-ALL cell line = experiment: Cytotoxicity assay, C1; format: cell-based, human; conditions: four days in culture, Alamar blue assay or automated microscopy, ± SD, three experiments
Procedure, shortened: as §2

Molt-3 T-ALL cell line = experiment: Cytotoxicity assay, Molt-3; format: cell-based, human; conditions: T-ALL cell line Molt-3, four days in culture, Alamar blue assay or automated microscopy, ± SD, three experiments
Procedure, shortened: as §1

| Compound | IC50 (NB4 APML cell line; Homo sapiens, 96 h) [nM] | IC50 (HL-60 RA APML cell line; Homo sapiens, 96 h) [nM] | IC50 (B1 B-ALL cell line; Homo sapiens, 96 h) [nM] | IC50 (MV4-11 AML cell line; Homo sapiens, 96 h) [nM] | IC50 (TIB-202 AML cell line; Homo sapiens, 96 h) [nM] | IC50 ([1]; Homo sapiens, 96 h) [nM] | IC50 (CEM T-ALL cell line; Homo sapiens, 96 h) [nM] | IC50 (Aurora-B) [nM] | IC50 (UOCB1 B-ALL cell line; Homo sapiens, UoC-B1, 96 h) [nM] | IC50 (Normal Lymphocytes; Homo sapiens, Lymphocyte, 96 h) [nM] | IC50 (C1 B-ALL cell line; Homo sapiens, 96 h) [nM] | IC50 (Molt-3 T-ALL cell line; Homo sapiens, 96 h) [nM] | other results |
| --- | --- | --- | --- | --- | --- | --- | --- | --- | --- | --- | --- | --- | --- |
| O=C(Nc1c[nH]nc1-c1nc2ccc(CN3CCOCC3)cc2[nH]1)NC1CC1 [AT9283] | 60 ± 30 | 3 ± 2 | 60 ± 30 | 3 ± 2 | 800 ± 200 | 5000 | 0.7 | 3 | 0.08 | 9000 ± 1000 | 0.6 | 0.4 | – |
| CCN1CCN(C(=O)Cc2ccc(Nc3ncc(F)c(Nc4ccc(C(=O)Nc5ccccc5Cl)cc4)n3)cc2)CC1 [Aurora A Inhibitor I] | – | – | – | – | – | – | – | 3400 | – | – | – | – | IC50 (NB4 APML cell line): 700 ± 50 nM; IC50 (HL-60 RA APML cell line): 1000 ± 600 nM; IC50 (B1 B-ALL cell line): 700 ± 100 nM; IC50 (MV4-11 AML cell line): 400 ± 100 nM; IC50 (TIB-202 AML cell line): 5 ± 2 nM; IC50 [1]: 8000 nM; IC50 (CEM T-ALL cell line): 300 ± 200 nM; IC50 (UOCB1 B-ALL cell line): 20 ± 9 nM; IC50 (Normal Lymphocytes): 3000 ± 500 nM; IC50 (C1 B-ALL cell line): 900 ± 200 nM; IC50 (Molt-3 T-ALL cell line): 300 ± 200 nM |
| CCS(=O)(=O)Nc1ccc2c(c1)/C(=C(/Nc1ccc(CN3CCCCC3)cc1)c1ccccc1)C(=O)N2 [Hesperadin] | 4 ± 1 | 0.05 | 0.007 | 0.005 | 0.003 | 2000 | < 0.001 | 250 | < 0.001 | 2000 ± 1000 | 0.06 | < 0.001 | – |
